Entries after “also recorded” stand apart in the source; their conditions may differ.
Columns and labels:
porcine aortas = assay: Vasodilation of porcine aortic strips preconstricted with 0.3 micromolar phenylephrine
Protocol: 30 Kg pigs are sacrificed, and aortic strips are harvested. The strips are attached to F-60 transducer (Narco-BioSystems, Houston, Tex.) and attached to a physiography (Narco-BioSystems) while being submerged in a muscle tissue bath comprising a Krebs Ringer solution at 37° C., with 95% O2-5% CO2, bubbled through the bath. Percentage vasodilation is measured versus time after preconstriction with 0.3 micromolar phenylephrine. […] (Vesely et al., Biochem. Biophys. Res. Commun. 148:1540-1548, 1987).

[1] = tested on: particulate guanylate cyclase; assay: Cyclic GMP / particulate guanylate cyclase activation in cultured smooth muscle cells and porcine aorta; format: cell-based
[2] = Rat clearance model (diuresis and salt excretion); format: in vivo, Munich-Wistar rats; conditions: for FENa, fractional excretion of sodium / UNa, urinary sodium / UNaV, urinary sodium excretion rate / V, urine flow rate: means ± SE
Protocol: The same three peptides and ANF from Example I are tested using the rat clearance model. Six control rats and six experimental Munich-Wistar rats, each weighing 150-200 grams, are used for each peptide, with catheters being placed in both jugular veins and in the femoral artery. The ureters are cannulated for simultaneous urine collections with femoral artery blood collections.
After inserting the catheters, a stabilization of one hour is allowed. A 10 μg/kg bolus of each of the respective human sequences of the peptides is given via the jugular vein to six experimental rats followed by a sustaining infusion of 0.1 μg/kg/min for 60 minutes. Blood and urine samples are collected at 20 minute intervals during this 60 minute infusion. In both the control and experimental animals, hematocrits and plasma sodium values remained at the same levels pre- and post-infusion while blood pressure decreased with each of these peptides (see Attachment B).

[3] = tested on: particulate guanylate cyclase; assay: Particulate guanylate cyclase activity in the kidney; format: biochemical; conditions: 1 μM; whole kidney homogenates, renal cortical and medullary membranes, isolated distal nephrons
Protocol: Testing is also carried out to determine biologic effects of these peptides by measuring their effects on particulate guanylate activity in the kidney.

[4] = Infusion into healthy human subjects; format: in vivo; conditions: healthy humans
Protocol: Infusion of these peptides into healthy human subjects was performed as follows: Human pro-ANF 1-30, pro-ANF 31-67, and pro-ANF 79-98, and hANF (i.e., pro-ANF 99-126, were synthesized by Peninsula Laboratories (Belmont, Calif.). High pressure liquid chromatography (HPLC) analysis was performed on a sample of each of the four peptides to ensure purity. The peptides were dissolved in a sterile 0.9% saline solution to a concentration of 100 μg/ml and dispensed in 2 and 5 ml aliquots into sealed sterile vials. At the time of dispensing, randomly selected vials were tested for pyrogens and sterility. Prior to labeling the vials, the actual peptide content of the dispensed solution were determined by direct radioimmunoassay to account for any possible absorption of the respective peptides to the walls of the vials. All vials were then stored at −80° C. until thawed for individual study.
Normal healthy subjects were chosen on the basis of age (between 20 and 50 years), physical examination and biochemical screenings. The subjects consumed their normal diets prior to testing. The subjects fasted overnight and were tested in the morning in the seated position. Intravenous catheters were placed bilaterally for the administration of pro-hANF 1-30, pro-hANF 31-67, pro-hANF 79-98 and hANF (pro-hANF 99-126) and for blood sampling. After completion of a 45-minute equilibration period, there were three […] phases of the study: baseline, experimental infusion (60 minutes) and recovery (3 hours). The baseline phase consisted of two 30 minute urine collection periods, the experimental phase consisted of three 20 minute urine and plasma collection periods, and the recovery phase consisted of two 30 minute urine and plasma collection periods each hour for three hours post-infusion. Urine output was replaced on a milliliter per milliliter basis throughout the study by administering oral water or orange juice. Urine samples were obtained by voiding at the designated collection periods.
The 36 subjects were divided into 6 groups. One group (i.e., the control group) received a placebo infusion of 0.9% sodium chloride during the experimental infusion phase. […] The four remaining groups of six subjects each received human pro-hANF 1-30, pro-hANF 31-67, pro-hANF 79-98 and HANF. The four groups received the peptides by continuous infusion at the rate of 0.1 μg/kg per minute. The volume administered per hour during the experimental infusion phase was 10 ml for all four peptides and the placebo. All infusions were given by a constant-rate infusion pump, with the final concentrations of prohANFs adjusted for the subjects' body weight. The subjects heart rate and cuff blood pressure were taken at 5 minute intervals throughout the study. The excreted urine was analyzed for sodium concentration.

[5] = Infusion into human subjects with Class III NYHA congestive heart failure; format: in vivo, humans
Protocol: Human proANF's 1-30, 31-67, 79-98, and 99-126 (i.e., ANF) were infused into human subjects with Class III New York Heart Association congestive heart failure (CHF). An identical protocol to that used in example V where these peptides were infused into healthy human subjects was utilized. (See Attachment C and F for a detailed description of this protocol). The human subjects with congestive heart failure received an identical dose (0.1 μg/kg body wt/minute for 60 minutes) that the healthy human subjects received. […] This striking urine output secondary to proANF 31-67 was significant at P<0.0001 compared to the pre-infusion output of the congestive heart failure subjects (n=6).

[6] = tested on: renal medullary Na+-K+-ATPase; assay: Inhibition of renal medullary Na+-K+-ATPase activity (FIG. 9); format: biochemical; conditions: 10^-11 M, n=6, ANOVA
Text: FIG. 9. Inhibition of renal medullary Na+-K+-ATPase activity by proANF 79-98 (kaliuretic peptide), proANF 1-30 (long acting natriuretic peptide), proANF 31-67 (vessel dilator), and angiotensin II at their […] concentrations.

[7] = A, control period (before peptide)
[8] = B, first 60-minute experiment period, 10 μg/kg bolus then 0.1 μg/kg/min
[9] = C, second 60-minute experimental period

H-EVVPPQVLSEPNEEAGAALSPLPEVPPWTGEVSPAQR-OH [proANF 31-67]
increase in cyclic GMP levels over baseline levels associated with vasodilation (porcine aortas): four-to-five fold | cyclic GMP levels in cultured smooth muscle cells ([1]; cultured smooth muscle cells): increase cyclic GMP levels | concentration of maximal activation of guanylate cyclase activity ([1]; porcine aorta and isolated smooth muscle cells): about 1 μM | EC50 ([1]; porcine aorta and isolated smooth muscle cells, read-out: half maximal activation (ED5o) of guanylate cyclase): ~0.01 µM | FENa, fractional excretion of sodium [2, 7]: 0.057 ± 0.012% | UNa, urinary sodium [2, 7]: 21.02 ± 4.41 meq/1 | UNaV, urinary sodium excretion rate [2, 7]: 144.08 ± 56.75 μeq · min^−1 · g kidney wt^−1 | V, urine flow rate [2, 7]: 2.63 ± 0.24 μl · min^−1 · g kidney wt^−1 | V, urine flow rate ([2]; B, first 60-minute experiment period, 10 μg/kg bolus then 0.1 μg/kg/min via jugular vein): 9.36 ± 3.14 μl · min^−1 · g kidney wt^−1 | FENa, fractional excretion of sodium [2, 8]: 0.457 ± 0.156% | UNa, urinary sodium [2, 8]: 111.73 ± 21.37 meq/1 | UNaV, urinary sodium excretion rate [2, 8]: 1,057 ± 371.69 μeq · min^−1 · g kidney wt^−1 | V, urine flow rate ([2]; C, second 60-minute experimental period, 10 μg/kg bolus then 0.1 μg/kg/min): 8.84 ± 1.86 μl · min^−1 · g kidney wt^−1 | FENa, fractional excretion of sodium [2, 9]: 0.444 ± 0.155% | UNa, urinary sodium [2, 9]: 129.33 ± 24.73 meq/1 | UNaV, urinary sodium excretion rate [2, 9]: 1,077.63 ± 306.10 μeq · min^−1 · g kidney wt^−1 | potassium excretion ([2]; rat clearance model): does not cause increased potassium excretion | particulate guanylate cyclase activity [3]: enhance | duration of sodium excreting effects compared to ANF [4]: significantly (P<0.001) prolonged compared to ANF; also recorded: last significantly (P<0.001) longer than ANF's effects | increase in urine volume (in words) ([4]; 100 ng/kg body wt per minute for 1 hour i.v., n=6, ANOVA): significant | sodium excretion (in words) ([4]; 100 ng/kg body wt per minute for 60 minutes, vs baseline): significantly (P<0.05) increased | systolic and diastolic blood pressures ([4]; 100 ng/kg body wt per minute i.v. for 60 min, n=6): significant; also recorded: lowers blood pressure the most | FENa 20 minutes after infusion began ([5]; CHF): doubled | FENa at the end of the infusion vs baseline ([5]; CHF): 4.5 fold | decrease of central venous pressure ([5]; CHF): 27% | decrease of pulmonary capillary wedge pressure ([5]; CHF): 33% | heart rate ([5]; CHF): did not change significantly | increase of cardiac index ([5]; CHF): 35% | increase of cardiac output ([5]; CHF): 34% | increase of stroke volume index ([5]; CHF): 24% | mean pulmonary artery pressure ([5]; CHF): did not change significantly | sodium excretion within 20 minutes ([5]; CHF): doubling | enhancement of sodium excretion ([5]; CHF subjects, 100 ng/kg body weight/min for 60 minutes): three-to-eight fold | urine output in 20 minutes ([5]; CHF, 0.1 μg/kg body wt/minute for 60 minutes): doubled | urine output at the end of the 60 minute infusion ([5]; CHF, 0.1 μg/kg body wt/minute, n=6): 4.8 fold | fractional excretion of sodium (in words) ([5]; CHF, 100 ng/kg body weight per minute for 60 minutes): significantly (P<0.05) increased | maximum increase of fractional excretion of sodium (FENa) ([5]; CHF, P<0.001): 6 fold | sodium excretion 3 hours after infusion was stopped vs baseline ([5]; CHF, P<0.01): 3 fold | decrease of pulmonary vascular resistance ([5]; CHF, during the infusion): 25% | decrease of systemic vascular resistance ([5]; CHF, during the infusion): 24% | urine output 3 hours after stopping the infusion vs pre-infusion values ([5]; CHF, n=6): 4.3 fold | urine output 3 hours after stopping the infusion ([5]; CHF, n=6, baseline 1.56±0.35 mL/min): 6.7 ± 0.65 mL/min | cardiac index after proANF 31-67 ([5]; CHF, from 2.66±0.01): 3.58±0.01 L·min^−1·m^−2 | cardiac output after proANF 31-67 ([5]; CHF, from 5.35±0.9 L/min): 7.9 ± 1.2 L/min | effects in persons with CHF compared to healthy individuals ([5]; diuretic and natriuretic effects): not blunted (i.e., decreased) compared to healthy individuals | adverse effects ([5]; human, in vivo): no adverse effects | hypotension ([5]; human, in vivo): None became hypotensive | increase in urinary volume and flow ([5]; one CHF patient, for six hours after infusion was stopped): 2 fold | inhibition of renal medullary Na+-K+-ATPase activity [6]: significant at P<0.01

From patent US20060205642A1, “Oral methods of treatment using proANF peptides” (priority 2005, published 2006)
